Source: patent US20050239809A1, “Methods for treating and preventing hypertension and hypertension-related disorders” (priority 2004, published 2005)

System: endothelium-denuded aorta from DOCA-salt and sham rats
Experiment: Spontaneous tone of endothelium-denuded thoracic aorta in isolated tissue baths (isometric force)
Parameters: species or system rat
Description: Endothelial cell-denuded thoracic aorta, removed from pentobarbital (60 mg kg^-1, i.p.) anesthetized rats, were pair-mounted (Sham/DOCA) in isolated tissue baths for measurement of isometric force. (Florian and Watts (1999) Am. J. Physiol., 276: […]-[…]) Tissues were challenged with a maximal concentration of a adrenergic agonist, phenylephrine (PE) (10^-5 mol/L). IC87114 (ICOS Corporation, Bothell, Wash.) concentration response curves were generated by adding increasing concentrations of IC87114 (1×10^-9-3×10^-4 mol/L) with measurements of spontaneous tone taken every 30 minutes. Aortic strips from DOCA-salt rats were also exposed to 20 μmol/L IC87114 or vehicle for 1 hour and measurements of spontaneous tone were recorded. […] Tissues were under passive tension for optimal force production. […] The effect of IC87114 was reversible in all experiments, as spontaneous tone was restored upon washing out of IC87114. In further experiments using an IC87114 concentration equivalent to that used in previous experiments with LY294002 (20 μmol/L) (Example 1), IC87114 (20 μmol/L) or vehicle (0.1% DMSO) was incubated with aortic strips from DOCA-salt rats for 1 hour in isolated tissue baths.

## Cc1ccccc1-n1c(Cn2cnc3c(N)ncnc32)nc2cccc(C)c2c1=O [IC87114, 2-(6-aminopurin-9-ylmethyl)-5-methyl-3-o-tolyl-3H-quinazolin-4-one]
20 μmol/L, 1 hour incubation, compared to vehicle (0.1% DMSO), P<0.05
  effect on spontaneous tone in aorta from DOCA-salt rats, single concentration: significantly inhibits spontaneous tone development
10^−9 to 3×10^−4 mol/L, absence of agonist, endothelium-denuded aortic strips
  effect of increasing concentrations on spontaneous tone in aorta from DOCA-salt rats: reduced spontaneous tone in a concentration-dependent manner
Aorta from DOCA-salt rats
  reversibility of effect on spontaneous tone upon washing out: reversible
